ChEMBL document CHEMBL1148566, “Stereoselective synthesis and glycosidase inhibitory activity of 3,4-dihydroxy-pyrrolidin-2-one, 3,4-dihydroxy-piperidin-2-one and 1,2-dihydroxy-pyrrolizidin-3-one” (Bioorg Med Chem Lett, 2006)
Active and inactive are the calls of the source. The rule behind the calls is not given here.

Tests used:
[1] = tested on: Beta-hexosaminidase (Canavalia ensiformis); test: Inhibitory activity against beta-N-acetylglucosaminidase in jack beans at 1 mM
[2] = molecular target: Alpha-galactosidase (Coffea arabica) (UniProt Q5DUH8); test: Inhibitory activity against alpha-galactosidase in coffee beans at 1 mM
[3] = molecular target: T1, Alpha-galactosidase (Escherichia coli K-12) (UniProt P06720); test: Inhibitory activity against alpha-galactosidase in Escherichia coli at 1 mM
T1 sequence (whole entry): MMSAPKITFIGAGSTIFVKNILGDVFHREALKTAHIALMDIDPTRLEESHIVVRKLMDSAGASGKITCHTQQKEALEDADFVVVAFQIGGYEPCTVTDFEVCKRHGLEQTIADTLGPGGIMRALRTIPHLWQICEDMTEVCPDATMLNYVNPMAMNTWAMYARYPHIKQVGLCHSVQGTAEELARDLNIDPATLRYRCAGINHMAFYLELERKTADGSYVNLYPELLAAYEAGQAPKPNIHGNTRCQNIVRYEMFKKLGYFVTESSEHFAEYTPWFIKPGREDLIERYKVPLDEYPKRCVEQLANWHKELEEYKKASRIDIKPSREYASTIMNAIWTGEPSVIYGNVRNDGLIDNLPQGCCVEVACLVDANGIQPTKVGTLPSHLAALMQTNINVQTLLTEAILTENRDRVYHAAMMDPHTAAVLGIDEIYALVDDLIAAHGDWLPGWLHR

[4] = molecular target: T2, Exo-1,4-beta-xylosidase xlnD (Aspergillus niger) (UniProt O00089); test: Inhibitory activity against beta-xylosidase in Aspergillus niger at 1 mM
T2 sequence (whole entry): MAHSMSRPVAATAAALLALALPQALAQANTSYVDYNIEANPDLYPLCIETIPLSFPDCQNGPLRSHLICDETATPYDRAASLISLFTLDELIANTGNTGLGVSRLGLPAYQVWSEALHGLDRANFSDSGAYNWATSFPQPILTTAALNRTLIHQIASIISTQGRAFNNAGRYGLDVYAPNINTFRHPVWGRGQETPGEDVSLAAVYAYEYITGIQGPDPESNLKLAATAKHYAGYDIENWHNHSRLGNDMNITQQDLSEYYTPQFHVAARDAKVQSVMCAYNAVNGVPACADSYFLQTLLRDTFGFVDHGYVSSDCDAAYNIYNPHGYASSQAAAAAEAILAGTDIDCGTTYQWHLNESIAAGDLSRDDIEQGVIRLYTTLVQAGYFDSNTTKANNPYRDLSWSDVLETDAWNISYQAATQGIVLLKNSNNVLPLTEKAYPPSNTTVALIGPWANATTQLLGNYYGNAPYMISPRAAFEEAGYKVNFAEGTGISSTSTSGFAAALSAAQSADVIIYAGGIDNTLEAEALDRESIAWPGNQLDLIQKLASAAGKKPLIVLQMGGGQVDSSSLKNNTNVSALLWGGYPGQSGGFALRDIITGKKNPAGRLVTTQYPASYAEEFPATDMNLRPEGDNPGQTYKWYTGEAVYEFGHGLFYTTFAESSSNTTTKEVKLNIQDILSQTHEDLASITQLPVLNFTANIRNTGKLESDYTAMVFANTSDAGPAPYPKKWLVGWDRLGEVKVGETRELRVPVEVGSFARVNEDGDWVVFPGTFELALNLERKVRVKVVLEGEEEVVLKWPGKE

[5] = tested on: Beta-hexosaminidase (Bos taurus); test: Inhibitory activity against beta-N-acetylglucosaminidase in bovine kidney at 1 mM
Saccharomyces cerevisiae = test: Inhibitory activity against alpha-glucosidase in yeast; details: concentration not given here
[6] = molecular target: T3, Tissue alpha-L-fucosidase (Bos taurus) (UniProt Q2KIM0); test: Inhibitory activity against alpha-L-fucosidase in bovine brain at 1 mM
T3 sequence (whole entry): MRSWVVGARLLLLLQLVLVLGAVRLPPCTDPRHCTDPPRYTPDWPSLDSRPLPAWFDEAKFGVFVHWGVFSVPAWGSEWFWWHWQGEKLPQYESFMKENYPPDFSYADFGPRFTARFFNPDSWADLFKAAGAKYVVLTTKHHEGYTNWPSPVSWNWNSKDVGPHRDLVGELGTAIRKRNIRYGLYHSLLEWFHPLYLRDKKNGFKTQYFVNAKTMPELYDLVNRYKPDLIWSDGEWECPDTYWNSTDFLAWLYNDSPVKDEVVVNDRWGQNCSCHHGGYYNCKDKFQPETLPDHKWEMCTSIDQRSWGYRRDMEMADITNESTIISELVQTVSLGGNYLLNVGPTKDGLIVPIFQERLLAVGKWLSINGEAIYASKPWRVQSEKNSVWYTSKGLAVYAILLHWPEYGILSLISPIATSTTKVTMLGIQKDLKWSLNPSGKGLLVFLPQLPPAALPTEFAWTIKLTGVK

[7] = molecular target: T4, Beta-galactosidase (Bos taurus) (UniProt Q58D55); test: Inhibitory activity against beta-galactosidase in bovine liver at 1 mM
T4 sequence (whole entry): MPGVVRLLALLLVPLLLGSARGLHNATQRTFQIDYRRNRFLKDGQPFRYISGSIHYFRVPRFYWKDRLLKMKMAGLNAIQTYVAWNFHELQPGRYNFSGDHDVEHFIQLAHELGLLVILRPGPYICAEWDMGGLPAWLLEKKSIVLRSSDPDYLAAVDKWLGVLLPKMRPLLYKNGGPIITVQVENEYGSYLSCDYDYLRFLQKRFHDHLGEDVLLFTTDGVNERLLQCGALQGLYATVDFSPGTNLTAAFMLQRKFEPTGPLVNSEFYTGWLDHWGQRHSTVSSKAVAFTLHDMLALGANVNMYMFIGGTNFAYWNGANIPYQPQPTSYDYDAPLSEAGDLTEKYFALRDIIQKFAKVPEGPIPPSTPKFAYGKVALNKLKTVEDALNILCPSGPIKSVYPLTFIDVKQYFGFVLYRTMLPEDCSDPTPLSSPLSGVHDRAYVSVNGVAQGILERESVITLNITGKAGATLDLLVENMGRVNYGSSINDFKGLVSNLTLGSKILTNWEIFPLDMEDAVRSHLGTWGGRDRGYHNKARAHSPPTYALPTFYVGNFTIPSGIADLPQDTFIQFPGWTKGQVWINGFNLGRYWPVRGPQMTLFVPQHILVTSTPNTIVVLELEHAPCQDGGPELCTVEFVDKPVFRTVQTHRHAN

[8] = molecular target: T5, Beta-galactosidase/ beta-glucuronidase (Aspergillus oryzae (strain ATCC 42149 / RIB 40)) (UniProt Q2TXB7); test: Inhibitory activity against beta-galactosidase in Aspergillus oryzae at 1 mM
T5 sequence (whole entry): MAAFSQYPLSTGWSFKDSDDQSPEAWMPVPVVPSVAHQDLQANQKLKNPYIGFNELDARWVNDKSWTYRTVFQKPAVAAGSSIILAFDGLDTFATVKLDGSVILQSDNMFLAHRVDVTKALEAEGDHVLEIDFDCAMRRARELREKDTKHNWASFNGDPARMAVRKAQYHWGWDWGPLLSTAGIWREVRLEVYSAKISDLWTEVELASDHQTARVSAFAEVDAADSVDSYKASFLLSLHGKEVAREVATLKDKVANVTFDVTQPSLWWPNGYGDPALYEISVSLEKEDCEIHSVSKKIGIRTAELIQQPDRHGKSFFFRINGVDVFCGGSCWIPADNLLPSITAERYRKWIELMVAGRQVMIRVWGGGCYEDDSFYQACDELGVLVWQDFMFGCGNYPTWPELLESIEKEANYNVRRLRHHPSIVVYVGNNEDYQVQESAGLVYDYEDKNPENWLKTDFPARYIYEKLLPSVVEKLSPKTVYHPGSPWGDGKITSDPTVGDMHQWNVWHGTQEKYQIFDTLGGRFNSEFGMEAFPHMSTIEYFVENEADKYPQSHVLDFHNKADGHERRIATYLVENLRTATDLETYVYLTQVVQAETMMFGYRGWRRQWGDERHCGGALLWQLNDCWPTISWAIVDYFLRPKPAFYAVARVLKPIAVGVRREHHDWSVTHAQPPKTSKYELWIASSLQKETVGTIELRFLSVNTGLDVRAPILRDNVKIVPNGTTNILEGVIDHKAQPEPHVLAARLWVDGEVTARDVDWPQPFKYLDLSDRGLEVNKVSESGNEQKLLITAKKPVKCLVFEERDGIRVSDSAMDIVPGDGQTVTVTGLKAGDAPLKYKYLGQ

[9] = Inhibitory activity against beta-mannosidase in Helix pomatia at 1 mM
[10] = molecular target: Alpha-galactosidase (Oryza sativa Japonica Group) (UniProt Q9FXT4); test: Inhibitory activity against alpha-galactosidase in rice at 1 mM
[11] = molecular target: T6, Glucoamylase 1 (Rhizopus oryzae) (UniProt P07683); test: Inhibitory activity against amyloglucosidase in Rhizopus mold at 1 mM
T6 sequence (whole entry): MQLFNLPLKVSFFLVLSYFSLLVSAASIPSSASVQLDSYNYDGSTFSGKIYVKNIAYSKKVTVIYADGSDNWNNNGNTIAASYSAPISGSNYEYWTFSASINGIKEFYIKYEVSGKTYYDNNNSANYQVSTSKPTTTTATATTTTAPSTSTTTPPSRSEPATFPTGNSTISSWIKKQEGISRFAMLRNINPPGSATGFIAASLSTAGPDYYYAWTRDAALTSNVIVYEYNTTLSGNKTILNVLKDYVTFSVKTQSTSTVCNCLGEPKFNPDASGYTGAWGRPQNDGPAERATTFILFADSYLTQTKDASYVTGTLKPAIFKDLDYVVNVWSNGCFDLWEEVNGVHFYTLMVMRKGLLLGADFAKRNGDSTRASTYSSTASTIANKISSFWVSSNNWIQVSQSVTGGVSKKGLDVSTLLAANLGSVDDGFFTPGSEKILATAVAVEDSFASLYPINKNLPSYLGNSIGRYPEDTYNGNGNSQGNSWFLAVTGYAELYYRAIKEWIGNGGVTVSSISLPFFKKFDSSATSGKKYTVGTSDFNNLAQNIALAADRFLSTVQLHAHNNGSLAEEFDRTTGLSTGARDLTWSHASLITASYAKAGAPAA

[12] = molecular target: Glucoamylase (Aspergillus niger) (UniProt P69328); test: Inhibitory activity against amyloglucosidase in Aspergillus niger at 1 mM
Glucoamylase (Aspergillus niger), sequence (P69328 whole entry): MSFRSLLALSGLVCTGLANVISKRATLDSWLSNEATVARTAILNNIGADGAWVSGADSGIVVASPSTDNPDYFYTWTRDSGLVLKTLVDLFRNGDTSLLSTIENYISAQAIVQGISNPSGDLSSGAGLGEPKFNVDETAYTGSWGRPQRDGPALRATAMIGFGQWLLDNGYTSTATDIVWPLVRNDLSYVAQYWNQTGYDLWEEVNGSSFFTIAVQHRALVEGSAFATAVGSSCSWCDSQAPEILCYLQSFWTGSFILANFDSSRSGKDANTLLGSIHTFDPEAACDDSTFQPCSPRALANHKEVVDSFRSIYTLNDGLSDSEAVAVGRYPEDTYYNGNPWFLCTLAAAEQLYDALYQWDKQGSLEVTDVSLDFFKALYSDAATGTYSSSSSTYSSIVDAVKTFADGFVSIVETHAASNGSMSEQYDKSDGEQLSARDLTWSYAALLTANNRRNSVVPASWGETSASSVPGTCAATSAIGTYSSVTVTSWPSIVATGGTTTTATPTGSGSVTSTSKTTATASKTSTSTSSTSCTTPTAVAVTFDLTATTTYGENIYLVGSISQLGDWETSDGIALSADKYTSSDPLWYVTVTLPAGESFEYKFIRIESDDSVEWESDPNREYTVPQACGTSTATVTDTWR

Alpha-galactosidase (Coffea arabica), sequence (Q5DUH8 as listed by the source): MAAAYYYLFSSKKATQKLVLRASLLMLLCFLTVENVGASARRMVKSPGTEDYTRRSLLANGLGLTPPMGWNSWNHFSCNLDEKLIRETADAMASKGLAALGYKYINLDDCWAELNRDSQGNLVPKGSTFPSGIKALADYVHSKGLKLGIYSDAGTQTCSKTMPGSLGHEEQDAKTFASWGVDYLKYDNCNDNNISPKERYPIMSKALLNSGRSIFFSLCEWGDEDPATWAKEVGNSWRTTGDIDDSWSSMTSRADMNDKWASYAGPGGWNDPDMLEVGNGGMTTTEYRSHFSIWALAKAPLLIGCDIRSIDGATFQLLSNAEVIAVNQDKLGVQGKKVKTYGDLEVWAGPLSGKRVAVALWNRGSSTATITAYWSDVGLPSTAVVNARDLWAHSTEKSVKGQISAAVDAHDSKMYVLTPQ
Alpha-galactosidase (Oryza sativa Japonica Group), sequence (Q9FXT4 whole entry): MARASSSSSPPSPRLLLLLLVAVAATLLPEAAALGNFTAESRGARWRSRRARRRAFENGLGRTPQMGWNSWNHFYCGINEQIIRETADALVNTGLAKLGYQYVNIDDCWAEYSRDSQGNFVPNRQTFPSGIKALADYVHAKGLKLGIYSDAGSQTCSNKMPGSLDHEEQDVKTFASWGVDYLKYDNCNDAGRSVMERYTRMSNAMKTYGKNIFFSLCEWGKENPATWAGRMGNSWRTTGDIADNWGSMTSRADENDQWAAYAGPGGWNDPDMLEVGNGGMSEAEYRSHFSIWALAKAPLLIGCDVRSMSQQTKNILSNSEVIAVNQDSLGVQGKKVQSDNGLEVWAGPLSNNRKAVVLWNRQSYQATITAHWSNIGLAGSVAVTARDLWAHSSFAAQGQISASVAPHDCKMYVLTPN

Structure (SMILES) | Activity [1] | Activity [2] | Activity [3] | Activity [4] | Activity [5] | inhibition (Saccharomyces cerevisiae) [%] | Activity [6] | Activity [7] | Activity [8] | Activity [9] | Activity [10] | Activity [11] | Activity [12]
C[C@@H]1CNC(=O)C(C)(O)C1O (some centres not stated) | inactive | inactive | inactive | inactive | inactive | 46 | inactive | inactive | inactive | inactive | inactive | inactive | inactive
C[C@@H]1NC(=O)C(C)(O)C1O (some centres not stated) | inactive | inactive | inactive | inactive | inactive | 48 | inactive | inactive | inactive | inactive | inactive | inactive | inactive
CC(C)[C@@H]1NC(=O)C(C)(O)C1O (some centres not stated) | inactive | inactive | inactive | inactive | inactive | 51 | inactive | inactive | inactive | inactive | inactive | inactive | inactive
CC1(O)C(=O)N2CCCC2C1O (configuration not stated) | inactive | inactive | inactive | inactive | inactive | 45 | inactive | inactive | inactive | inactive | inactive | inactive | inactive
